Results: PubChem BioAssay AID208 (DTP/NCI, 2004)
“And” between values parts separate entries of the source, which are not always exact repeats. Identical values can stand only once. Records with an inconclusive call do not appear.

Tested on: HT29 intrarenal xenograft, nude mice, tumor weight change
Experiment: NCI In Vivo Anticancer Drug Screen. Data for tumor model HT29;CX-1 Human Adenocarcinoma (MER+) (intrarenal inoculation) in NU/NU BALB/C (nude) mice
Details: endpoint: mean tumor weight change, higher = larger tumour
Description: The antitumor activity of compounds was measured in mice bearing transplantable tumors. Survival or tumor size were measured and the results are expressed as the measurement made in the treated group (T) divided by the measurement made in the vehicle treated control group (C). The tumor model used in this assay is HT29;CX-1 Human Adenocarcinoma (MER+) (intrarenal inoculation) in NU/NU BALB/C (nude) mice

[1] = dose: 200.0 mg/kg/injection, schedule: Q04DX004 (sc), vehicle: saline with Tween-80
[2] = dose: 300.0 mg/kg/injection, schedule: Q04DX004 (sc), vehicle: Klucel (hydroxypropylcellulose) (HPC)
[3] = dose: 600.0 mg/kg/injection, schedule: Q04DX004 (sc), vehicle: Klucel (hydroxypropylcellulose) (HPC)
[4] = dose: 1200.0 mg/kg/injection, schedule: Q04DX004 (sc), vehicle: Klucel (hydroxypropylcellulose) (HPC)
[5] = dose: 2400.0 mg/kg/injection, schedule: Q04DX004 (sc), vehicle: Klucel (hydroxypropylcellulose) (HPC)
[6] = dose: 400.0 mg/kg/injection, schedule: Q01DX010 (sc), vehicle: Klucel (hydroxypropylcellulose) (HPC)
[7] = dose: 800.0 mg/kg/injection, schedule: Q01DX010 (sc), vehicle: Klucel (hydroxypropylcellulose) (HPC)
[8] = dose: 300.0 mg/kg/injection, schedule: Q04DX004 (sc), vehicle: saline with Tween-80
[9] = dose: 600.0 mg/kg/injection, schedule: Q04DX004 (sc), vehicle: saline with Tween-80
[10] = dose: 1200.0 mg/kg/injection, schedule: Q04DX004 (sc), vehicle: saline with Tween-80
[11] = dose: 2400.0 mg/kg/injection, schedule: Q04DX004 (sc), vehicle: saline with Tween-80
[12] = dose: 150.0 mg/kg/injection, schedule: Q04DX004 (sc), vehicle: saline with Tween-80
[13] = dose: 150.0 mg/kg/injection, schedule: Q04DX004 (sc), vehicle: Klucel (hydroxypropylcellulose) (HPC)

## O=C(CN1CCOCC1)Nc1nc(-c2ccc(Cl)cc2)cs1
dose: 50.0 mg/kg/injection, schedule: Q04DX004 (ip), vehicle: saline with Tween-80
  T/C: 60 % of control
dose: 100.0 mg/kg/injection, schedule: Q04DX004 (ip), vehicle: saline with Tween-80
  T/C: 76 % of control
dose: 200.0 mg/kg/injection, schedule: Q04DX004 (ip), vehicle: saline with Tween-80
  T/C: 73 % of control
dose: 400.0 mg/kg/injection, schedule: Q04DX004 (ip), vehicle: saline with Tween-80
  T/C: 101 % of control
dose: 800.0 mg/kg/injection, schedule: Q04DX004 (ip), vehicle: saline with Tween-80
  T/C: 94 % of control

## Nc1nc(=O)n(C2OC(CO)C(O)C2O)cc1F (configuration not stated)
dose: 300.0 mg/kg/injection, schedule: Q04DX004 (ip), vehicle: saline
  T/C: 66 % of control
dose: 600.0 mg/kg/injection, schedule: Q04DX004 (ip), vehicle: saline
  T/C: 64 % of control
dose: 900.0 mg/kg/injection, schedule: Q04DX004 (ip), vehicle: saline
  T/C: 53 % of control
dose: 1200.0 mg/kg/injection, schedule: Q04DX004 (ip), vehicle: saline
  T/C: 88 % of control

## NC(=S)N/N=C/c1ccc(O)cn1
[1]
  T/C: 75 % of control

## COc1ccc2c(NCCCCCCCCNc3c4ccccc4nc4cc(OC)ccc34)c3ccccc3nc2c1
dose: 31.25 mg/kg/injection, schedule: Q04DX004 (sc), vehicle: suspension in saline
  T/C: 65 % of control
dose: 62.5 mg/kg/injection, schedule: Q04DX004 (sc), vehicle: suspension in saline
  T/C: 72 % of control
dose: 125.0 mg/kg/injection, schedule: Q04DX004 (sc), vehicle: suspension in saline
  T/C: 47 % of control
dose: 250.0 mg/kg/injection, schedule: Q04DX004 (sc), vehicle: suspension in saline
  T/C: 73 % of control

## COC(=O)Nc1nc2ccc(SC)cc2c(=O)[nH]1
[2]
  T/C: 122 % of control
[3]
  T/C: 95 % of control
[4]
  T/C: 48 % of control
[5]
  T/C: 37 % of control

## CO[C@H](/C(C)=C/C=C/C(C)=C/c1coc(C)n1)[C@H](C)[C@H]1C[C@@H](O)[C@@]2(C)O[C@H]2/C=C/[C@@H](C)[C@@H]2C[C@@H](CC(=O)O2)C[C@H]2O[C@@H]2C(=O)O1
dose: 0.13 mg/kg/injection, schedule: Q04DX004 (sc), vehicle: Klucel (hydroxypropylcellulose) (HPC)
  T/C: 73 % of control and 88 % of control
dose: 1.0 mg/kg/injection, schedule: Q04DX004 (sc), vehicle: Klucel (hydroxypropylcellulose) (HPC)
  T/C: 57 % of control

## [Na+]
dose: 150.0 mg/kg/injection, schedule: Q04DX004 (ip), vehicle: water
  T/C: 55 % of control
dose: 300.0 mg/kg/injection, schedule: Q04DX004 (ip), vehicle: water
  T/C: 70 % of control
dose: 600.0 mg/kg/injection, schedule: Q04DX004 (ip), vehicle: water
  T/C: 16 % of control
dose: 1200.0 mg/kg/injection, schedule: Q04DX004 (ip), vehicle: water
  T/C: 76 % of control

## CCN1C=C/C(=C\C=C/c2cc[n+](CC)c3ccccc23)c2ccccc21
dose: 0.5 mg/kg/injection, schedule: Q01DX010 (sc), vehicle: saline
  T/C: 229 % of control

## C=C(NC(=O)C(=C)NC(=O)c1csc(C2=NC3c4csc(n4)C4NC(=O)c5csc(n5)C(C(C)(O)C(C)O)NC(=O)C5CSC(=N5)/C(=C/C)NC(=O)C(C(C)O)NC(=O)c5csc(n5)C3(CC2)NC(=O)C(C)NC(=O)C(=C)NC(=O)C(C)NC(=O)C(C(C)CC)NC2C=Cc3c(C(C)O)cc(nc3C2O)C(=O)OC4C)n1)C(N)=O (configuration not stated)
[6]
  T/C: 81 % of control
[7]
  T/C: 96 % of control
dose: 1600.0 mg/kg/injection, schedule: Q01DX010 (sc), vehicle: Klucel (hydroxypropylcellulose) (HPC)
  T/C: 44 % of control
dose: 2400.0 mg/kg/injection, schedule: Q01DX010 (sc), vehicle: Klucel (hydroxypropylcellulose) (HPC)
  T/C: 71 % of control

## Cn1ccc(=Nc2ccc(NC(=O)c3ccc(N=c4ccn(C)c5ccc([N+](=O)[O-])cc45)cc3[N+](=O)[O-])cc2)cc1
[8]
  T/C: 102 % of control
[9]
  T/C: 104 % of control
[10]
  T/C: 164 % of control
[11]
  T/C: 156 % of control

## CC(C)CC(NC(=O)CF)C(=O)O (configuration not stated)
dose: 10.0 mg/kg/injection, schedule: Q04DX004 (sc), vehicle: saline
  T/C: 87 % of control
dose: 20.0 mg/kg/injection, schedule: Q04DX004 (sc), vehicle: saline
  T/C: 157 % of control

## COc1cc(C(=O)c2cocc2C(=O)c2ccc3c(c2)OCO3)cc(OC)c1OC
[2]
  T/C: 103 % of control
[3]
  T/C: 57 % of control
[4]
  T/C: 89 % of control
[5]
  T/C: 66 % of control

## C=COC(=O)C(Cc1ccccc1)NC(=O)OCc1ccccc1 (configuration not stated)
[12]
  T/C: 100 % of control
[8]
  T/C: 80 % of control
[9]
  T/C: 123 % of control
[10]
  T/C: 60 % of control

## Cn1c(=O)[nH]c2nncnc2c1=O
dose: 60.0 mg/kg/injection, schedule: Q04DX004 (sc), vehicle: water
  T/C: 124 % of control

## [N-]=[N+]=[N-]
dose: 1.5 mg/kg/injection, schedule: Q04DX004 (ip), vehicle: water
  T/C: 79 % of control
dose: 3.0 mg/kg/injection, schedule: Q04DX004 (ip), vehicle: water
  T/C: 90 % of control
dose: 6.0 mg/kg/injection, schedule: Q04DX004 (ip), vehicle: water
  T/C: 59 % of control
dose: 12.0 mg/kg/injection, schedule: Q04DX004 (ip), vehicle: water
  T/C: 62 % of control

## CCCCNCCCNCCCNC(=O)c1csc(-c2csc(CCNC(=O)C(NC(=O)C(C)C(O)C(C)NC(=O)C(NC(=O)c3nc(C(CC(N)=O)NCC(N)C(N)=O)nc(N)c3C)C(OC3OC(CO)C(O)C(O)C3OC3OC(CO)C(O)C(OC(N)=O)C3O)c3cnc[nH]3)C(C)O)n2)n1 (configuration not stated)
dose: 8.0 mg/kg/injection, schedule: Q01DX010 (sc), vehicle: saline
  T/C: 30 % of control
dose: 32.0 mg/kg/injection, schedule: Q01DX010 (sc), vehicle: saline
  T/C: -32 % of control

## Cc1ccc(S(=O)(=O)N/N=C/C(=O)O)cc1
dose: 100.0 mg/kg/injection, schedule: Q01DX010 (sc), vehicle: Klucel (hydroxypropylcellulose) (HPC)
  T/C: 87 % of control
dose: 200.0 mg/kg/injection, schedule: Q01DX010 (sc), vehicle: Klucel (hydroxypropylcellulose) (HPC)
  T/C: 50 % of control
[6]
  T/C: 96 % of control
[7]
  T/C: 106 % of control

## O=C1N[C@H]2[C@H](CS[C@H]2CCCCC(=O)N(CCP(c2ccccc2)c2ccccc2)CCP(c2ccccc2)c2ccccc2)N1
[13]
  T/C: 121 % of control
[3]
  T/C: 86 % of control

## C=C(C)C(=O)O[C@H]1CC2=C[C@@H](C[C@@]3(C)O[C@@H]3[C@H]3OC(=O)C(=C)[C@@H]31)OC2=O
dose: 75.0 mg/kg/injection, schedule: Q04DX004 (sc), vehicle: Klucel (hydroxypropylcellulose) (HPC)
  T/C: 75 % of control
[13]
  T/C: 121 % of control

## COc1cc(Cc2nccc3cc(OC)c(OC)cc23)c(C(C)=O)c(OC)c1
dose: 20.0 mg/kg/injection, schedule: Q01DX010 (sc), vehicle: saline
  T/C: 109 % of control
dose: 80.0 mg/kg/injection, schedule: Q01DX010 (sc), vehicle: saline
  T/C: 64 % of control

## ClCCCN1CCCCC1CCl (configuration not stated)
dose: 6.25 mg/kg/injection, schedule: Q04DX004 (sc), vehicle: saline
  T/C: 57 % of control
dose: 12.5 mg/kg/injection, schedule: Q04DX004 (sc), vehicle: saline
  T/C: 95 % of control
dose: 25.0 mg/kg/injection, schedule: Q04DX004 (sc), vehicle: saline
  T/C: 71 % of control

## O=C(CCCCCCC(=O)ON1C(=O)CCC1=O)ON1C(=O)CCC1=O
[12]
  T/C: 25 % of control
[8]
  T/C: 50 % of control
[9]
  T/C: 93 % of control
[10]
  T/C: 77 % of control

## CCc1ccc(C2=C(O)C(=O)C(c3ccc(CC)cc3)=C(O)C2=O)cc1
dose: 100.0 mg/kg/injection, schedule: Q04DX004 (sc), vehicle: saline with Tween-80
  T/C: 112 % of control
[1]
  T/C: 91 % of control
dose: 400.0 mg/kg/injection, schedule: Q04DX004 (sc), vehicle: saline with Tween-80
  T/C: 102 % of control

## O=C(Nc1cccc2c(OC(=O)C(Cl)Cl)c(N=Nc3ccc(S(=O)(=O)Nc4nccs4)cc3)cc(N=Nc3ccc(S(=O)(=O)Nc4nccs4)cc3)c12)C(Cl)Cl (tested in a mixture with another compound)
[8]
  T/C: 58 % of control
[9]
  T/C: 89 % of control
[10]
  T/C: 78 % of control
[11]
  T/C: 159 % of control

## O=C(O)CP(=O)(O)O
dose: 600.0 mg/kg/injection, schedule: Q04DX004 (sc), vehicle: saline
  T/C: 51 % of control
dose: 1200.0 mg/kg/injection, schedule: Q04DX004 (sc), vehicle: saline
  T/C: 118 % of control
dose: 2400.0 mg/kg/injection, schedule: Q04DX004 (sc), vehicle: saline
  T/C: 34 % of control
